This assay has as its system pregnancy maintenance (peripheral gestagenic activity). Kind of assay: pregnancy maintenance test in ovariectomized rats. The class given is in vivo, rat. Particulars: ovariectomized pregnant rats, subcutaneous once daily with estrone 5 μg/kg/day, day 8 to day 15 or 21. The source says: Executing the Pregnancy Maintenance Test in Rats:
In pregnant rats, removal of the corpora lutea or castration induces abortion. By exogenous supplying of progestins (gestagens) in combination with a suitable dose of estrogens, pregnancy can be maintained. The pregnancy maintenance test in ovariectomized rats serves to determine peripheral gestagenic activity of a compound.
Rats are paired up during the proestrus overnight. Mating is monitored on the morning of the following day by vaginal smear inspection. The presence of sperm is considered in this case as day 1 of the beginning of pregnancy. On day 8 of pregnancy, the animals are ovariectomized under ether anesthesia. […]
At the end of the test (day 15 or day 21), the animals are sacrificed under CO2 atmosphere, and live fetuses (fetuses with beating hearts) and implantation sites (early resorptions and dead fetuses including autolysis and atrophic placentas) in both uterine horns are counted. […] In uteri without fetuses or implantation sites, the number of nidation sites is determined by staining with 10% ammonium sulfide solution. The pregnancy maintenance rate is calculated as the quotient of the number of living fetuses and the total number of nidation sites (both resorbed and dead fetuses as well as nidation sites). […]

In the case of `CCC12CCC3C4CCC(=O)C=C4C4CC4C3C1C1CC1C21CCC(=O)O1` (stereo not drawn) [compound 3a, 18-Methyl-6α,7α-15β,16β-dimethylene-3-oxo-19-nor-17-pregn-4-ene-21,17-carbolactone], the “pregnancy-maintaining dose (ED50)” value came to 120 µg/kg/day.

(Values after patent US8445469B2, “18-methyl-19-nor-17-pregn-4-ene-21,17-carbolactones, as well as pharmaceutical preparations that contain the latter” (Bayer Intellectual Property GmbH, priority 2004, dated 2013).)
